The values that follow come from patent publication US20230242558A1, “NICOTINATE AND NICOTINAMIDE RIBOSIDE-BASED COMPOUNDS AND DERIVATIVES THEREOF” (New Frontier Bio, Inc., priority 2022, published 2023).

The subject of one assay is HaCaT cells. Put plainly: NAD assay in HaCaT cells, total NAD level normalized to protein. In kind it is cell-based. The conditions noted are these: 4 hours incubation, concentration not given. On the procedure:
The biological activity of certain compounds disclosed herein was determined using the following method: • 1. Plate HaCaT cells in 12-well tissue culture plates at a density of 200,000 cells per well in 0.75 mL DMEM growth medium. Incubate overnight at 37° C. in a incubator at 5% CO2. • 2. Next day, prepare dilutions of each compound in growth medium at the desired final concentration. • 3. Incubate cells as above for 4 hours. • 4. After the incubation, wash cell monolayers in each well with 200 uL PBS and add 200 uL 0.25% Trypsin. Let cells lift for 15 minutes. • 5. Once cells are lifted, collect cells into sterile 1.5 mL Eppendorf tube containing 400 uL of DMEM w/2% HI FBS. • 6. Centrifuge tubes for 500×g for 5 min. • 7. Aspirate supernatant and wash cells with 200 uL of cold PBS. • 8. Centrifuge tubes for 500×g for 5 min. • 9. Aspirate supernatant and add 400 μL of cold extraction buffer (provided in the NAD assay kit) and vortex each tube for 10 seconds. • 10. Centrifuge samples at 13,000×g for 10 min to remove insoluble material. • 11. Use a small aliquot of extract to determine total protein concentration by BCA protein assay kit. • 12. Deproteinize samples by filtering them through a 10 kDa cut-off spin filter. Centrifuge at 13,000×g for 10 min. • 13. After cell lysate is filtered, load 25 uL of samples to 96 well plate for NAD assay. • 14. Add 25 uL of extraction buffer to each well with samples to dilute them 1:2. Add 50 uL of standards to appropriate wells. • 15. Set up master reaction mix of cycling buffer and NAD cycling enzyme mix. Add 100 uL of mix to each well and incubate for […]. • 16. Add 10 uL of developer into each well. • 17. Let plate incubate at room temperature for 1 hr. • 18. Stop the reaction by adding 10 uL of stop solution into each well and mix well. • 19. Measure absorbance at 450 nm using plate reader. • 20. Plot standard curve and normalize data to determine total NAD level.

For another assay, the system named is NHDF cells. Put plainly: General NAD Assay Procedure: total NAD level in NHDF cells (NAD/NADH Quantification Kit). In kind it is cell-based. The conditions noted are these: for increase in NAD levels compared with NMN: 6-hour time point, all concentrations. On the procedure: NHDF cells (Lonza Cat #CC-2511) were plated in 12-well tissue culture plates at a density of 200,000 cells per well in 0.75 mL growth medium (Lonza FGM-2 cat #CC-3132 containing growth factors; cat #CC-4126). The plates were then incubated overnight at 37° C. in a humidified atmosphere of 5% CO2. The next day, dilutions of each test article were prepared in growth medium at 4× the desired final concentration. 250 μL of each dilution was added to respective wells to obtain desired concentration in each well. The cells were incubated for the desired length of time.
After the incubation, the cell monolayers in each well were washed with cold PBS. 400 μL of extraction buffer (provided in the NAD assay kit) was added and triturated 5-6 time. The cell lysate was collected in Eppendorf tubes and then flash frozen in a dry ice-methanol bath for 20 min then thawed at room temperature. The freeze-thaw cycle was repeated one additional time. The cell lysates were centrifuged and the supernatant collected stored at −80° C. until use.
An aliquot of extract was used to determine total protein concentration using Pierce BCA kit (Thermo Fisher Cat #23225). The total volumes of each sample were adjusted so that the total protein concentration was same in all samples.
50 μL of standards and each sample were added to appropriate wells of a 96-well plate, and the NAD assay according to the kit manufacturer's instructions (NAD/NADH Quantification Kit; Sigma-Aldrich; Catalog Number MAK037). The absorbance at 450 nm was measured using an Envision plate reader (Perkin Elmer) with default settings. The data was normalized against a blank. A standard curve was plotted and used to determine the total NAD level in each test sample.

Turning to `O=C(Nc1ccccc1C[P+](c1ccccc1)(c1ccccc1)c1ccccc1)c1cccnc1`, the “NAD+ level” value with HaCaT cells amounted to 666 pmol/mg protein.

Regarding `CCCCCCCCCCCCCCOC(=O)c1ccc[n+]([C@@H]2O[C@H](COC(C)=O)[C@@H](OC(C)=O)[C@H]2OC(C)=O)c1`, the “NAD+ level” value in the assay with HaCaT cells is listed as under 1 pmol/mg protein.

For `CCCCCCCCCCCCCCOC(=O)c1ccc[n+]([C@@H]2O[C@H](COP(=O)([O-])O)[C@@H](O)[C@H]2O)c1`, the “NAD+ level” value in the assay on HaCaT cells came out at 475 pmol/mg protein.

Consider `O=C(OCC[P+](c1ccccc1)(c1ccccc1)c1ccccc1)c1cccnc1`, for which, in the assay on HaCaT cells, the “NAD+ level” value was under 1 pmol/mg protein.

With `CCCCCCCCCCCCCCNC(=O)c1ccc[n+]([C@@H]2O[C@H](COC(C)=O)[C@@H](OC(C)=O)[C@H]2OC(C)=O)c1`, the “NAD+ level” value in the assay on HaCaT cells was under 1 pmol/mg protein.

`NCCOC(=O)c1cccnc1`: the “NAD+ level” value in the assay on HaCaT cells is 562 pmol/mg protein.

`CCCC(=O)OC[C@H]1O[C@@H]([n+]2cccc(C(=O)O)c2)[C@H](OC(=O)CCC)[C@@H]1OC(=O)CCC`: the “NAD+ level” value in the assay with HaCaT cells worked out at 831 pmol/mg protein.

`CC(=O)OC[C@H]1O[C@@H]([n+]2cccc(C(=O)NCc3ccccc3)c2)[C@H](OC(C)=O)[C@@H]1OC(C)=O`: in the assay with HaCaT cells, the “NAD+ level” value is 399 pmol/mg protein.

As for `CC(=O)OCC1OC([n+]2cccc(C(=O)Oc3c(C)c(C)c4c(c3C)CC[C@@](C)(CCC[C@H](C)CCC[C@H](C)CCCC(C)C)O4)c2)C(OC(C)=O)C1OC(C)=O` (stereo partly drawn), the “NAD+ level” value in the assay with HaCaT cells is 301 pmol/mg protein.

Regarding `O=C(Cc1ccccc1Nc1c(Cl)cccc1Cl)OCCOC(=O)c1cccnc1`, the “NAD+ level” value in the assay on HaCaT cells is given as under 1 pmol/mg protein.

For the compound `CC1=C(/C=C/C(C)=C/C=C/C(C)=C/C(=O)OCCOC(=O)c2cccnc2)C(C)(C)CCC1`, the “NAD+ level” value in the assay with HaCaT cells worked out at 788 pmol/mg protein.

For `NC(=O)c1ccc[n+]([C@@H]2O[C@H](COP(=O)([O-])O)[C@@H](O)[C@H]2O)c1` [NMN, nicotinamide mononucleotide, reference compound], the “Average Total NAD (pmoles) Concentration from NAD Assay” value (shortened to “Average Total NAD”) was determined as 48.5 pmol with NHDF cells (3-Hour, Conc. 5 μM); 63.5 pmol in the assay on NHDF cells (3-Hour, Conc. 10 μM); 63.1 pmol in the assay with NHDF cells (3-Hour, Conc. 20 μM); 50.9 pmol in the assay on NHDF cells (6-Hour, Conc. 5 μM); 54.9 pmol in the assay with NHDF cells (6-Hour, Conc. 10 μM); 58.6 pmol in the assay on NHDF cells (6-Hour, Conc. 20 μM).

Regarding `O=C(O)c1ccc[n+]([C@@H]2O[C@H](COP(=O)(O)O)[C@@H](O)[C@H]2O)c1` [Sample 1, Nicotinic acid mononucleotide], the “Average Total NAD” value with NHDF cells (3-Hour, Conc. 5 μM) worked out at 38.1 pmol; in the assay on NHDF cells (3-Hour, Conc. 10 μM) it was 55.0 pmol; with NHDF cells (3-Hour, Conc. 20 μM), 59.0 pmol; with NHDF cells (6-Hour, Conc. 5 μM), 72.6 pmol; in the assay with NHDF cells (6-Hour, Conc. 10 μM), 77.8 pmol; with NHDF cells (6-Hour, Conc. 20 μM) it was 79.4 pmol.

In the case of `O=C(NCCCCCC[P+](c1ccccc1)(c1ccccc1)c1ccccc1)c1ccc[n+]([C@@H]2O[C@H](COP(=O)(O)O)[C@@H](O)[C@H]2O)c1` [Sample 2, 1-((2R,3R,4S,5R)-3,4-dihydroxy-5-((phosphonooxy)methyl)tetrahydrofuran-2-yl)-3-((6-(triphenylphosphonio)hexyl)carbamoyl)pyridin-1-ium], the “Average Total NAD” value with NHDF cells (3-Hour, Conc. 5 μM) stood at 35.5 pmol; in the assay with NHDF cells (3-Hour, Conc. 10 μM) it was 45.5 pmol; with NHDF cells (3-Hour, Conc. 20 μM), 59.3 pmol; in the assay with NHDF cells (6-Hour, Conc. 5 μM), 82.2 pmol; with NHDF cells (6-Hour, Conc. 10 μM), 82.0 pmol; with NHDF cells (6-Hour, Conc. 20 μM), 74.5 pmol. Besides, the “increase in NAD levels compared with NMN” value in the assay on NHDF cells was “greater increase in NAD levels than NMN”.

Consider `O=C(NCCCCCC[P+](c1ccccc1)(c1ccccc1)c1ccccc1)c1cccnc1` [Sample 5], for which the “Average Total NAD” value amounted to 41.6 pmol with NHDF cells (3-Hour, Conc. 5 μM); 57.5 pmol with NHDF cells (3-Hour, Conc. 10 μM); 60.0 pmol with NHDF cells (3-Hour, Conc. 20 μM); 68.2 pmol in the assay with NHDF cells (6-Hour, Conc. 5 μM); 77.0 pmol in the assay on NHDF cells (6-Hour, Conc. 10 μM); 76.0 pmol with NHDF cells (6-Hour, Conc. 20 μM). Moreover, in the assay with NHDF cells, the “increase in NAD levels compared with NMN” value is “greater increase in NAD levels than NMN”.

Regarding `O=C(NCCCCCC[P+](c1ccccc1)(c1ccccc1)c1ccccc1)c1cccnc1` [drawing 171], the “NAD+ level” value in the assay on HaCaT cells is 217 pmol/mg protein.

For `O=C(NCCCCCC[P+](c1ccccc1)(c1ccccc1)c1ccccc1)c1ccc[n+]([C@@H]2O[C@H](COP(=O)(O)O)[C@@H](O)[C@H]2O)c1` [drawing 172], the “NAD+ level” value with HaCaT cells was found to be 449 pmol/mg protein.
